Holding throughout (type): in vivo
For test [1], the system named is tobacco whitefly. Description: Test Example 4: test diluent scattered on tomato seedling with hatched tobacco whitefly larvae. To be noted: 168 h; 500 ppm, 10 ml/cup scattered on tomato seedling at larvae stage, counted after seven days at 25° C.; read-out: Control value. On the procedure:
The formulations were diluted with water so that the concentration of the active ingredient became 500 ppm and thus test diluents were prepared. On the other hand, by releasing tobacco whitefly imagos to a tomato seedling planted in a plastic cup to allow them to lay eggs for about 24 hours. The tomato seedling was kept in a green house for eight days. At the stage in which larvae hatched from the laid eggs, any of the test diluents was scattered at the rate of 10 ml/cup. The tomato seedling was kept in the greenhouse at 25° C. for seven days. The number of survived larvae on tomato leaves was counted, and the control value was calculated by the following equation. Control value(%)={1−(Cb×Tai)/(Cai×Tb)}×100 wherein each character represents the following meaning: Cb: number of insects in non-treated section before treatment Cai: number of insects in non-treated section during observation Tb: number of insects in treated section before treatment Tai: number of insects in treated section during observation

Test [2] concerns cotton aphids (Aphis gossypii Glover). As to the kind of experiment: Test Example 1: test diluent scattered on cucumber seedling inoculated with cotton aphids. As to conditions: 120 h, 500 ppm active ingredient, 10 ml scattered on cucumber seedling, counted five days after scattering, read-out: Control value. On the procedure: The formulations were diluted with water so that the concentration of the active ingredient became 500 ppm and thus test diluents were prepared. On the other hand, a cucumber seedling (second true leaf development stage) planted in a plastic cup was inoculated with about 30 cotton aphids (Aphis gossypii Glover) and allowed to stand for one day. To the seedling, any one of the diluents (10 ml) was scattered. Five days after the scattering, the number of survived cotton aphids parasitic on the cucumber leaves was counted, and the control value was calculated by the following equation. Control value(%)={1−(Cb×Tai)/(Cai×Tb)}×100 wherein each character represents the following meaning: Cb: the number of insects in non-treated section before treatment Cai: the number of insects in non-treated section during observation Tb: the number of insects in treated section before treatment Tai: the number of insects in treated section during observation

Test [3] deals with cotton aphids. As to the kind of experiment: Test Example 2: plant foot irrigation of cucumber seedling in urethane mat, cotton aphids inoculated one day after treatment. To be noted: 168 h; 500 ppm, 5 ml plant foot irrigation, urethane mat; aphids inoculated one day after treatment, counted seven days after; read-out: Control value. On the procedure: The formulations were diluted with water so that the concentration of the active ingredient became 500 ppm and thus test diluents were prepared. On the other hand, a plant foot of cucumber seedling (second true leaf development stage) planted in a urethane mat was irrigated with any one of diluents (5 ml). One day after the treatment, the cucumber leaves were inoculated with 30 cotton aphids (all stages). Further seven days after, the number of survived cotton aphids parasitic on the cucumber leaves was counted, and the control value was calculated by the following equation. Control value(%)={1−(Cb×Tai)/(Cai×Tb)}×100 wherein each character represents the following meaning: Cb: number of insects in non-treated section before treatment Cai: number of insects in non-treated section during observation Tb: number of insects in treated section before treatment Tai: number of insects in treated section during observation

The test system of test [4] is rice brown planthopper. As to the kind of experiment: Test Example 6: plant foot irrigation of rice plant seedling, rice brown planthopper released after seven days. To be noted: Nilaparvata lugens, 144 h; 500 ppm, 5 ml plant foot irrigation of rice seedling; first-instars released after seven days, counted six days after; read-out: Control value. Here is the method:
The formulations were diluted with water so that the concentration of the active ingredient became 500 ppm and thus test diluents were prepared. On the other hand, a plant foot of rice plant seedling (two weeks after seeding, second leaf development stage) planted in a plastic cup was irrigated with any one of diluents (5 ml). The seedling was kept in a green house of 25° C. for seven days. Thirty first-instars of rice brown planthopper were released to the seedling, which was kept in the green house at 25 C for six days. Thereafter, the number of survived rice brown planthopper parasitic on rice plant leaves was counted, and the control value was calculated by the following equation. Control value(%)={1−(Cb×Tai)/(Cai×Tb)}×100 wherein each character represents the following meaning: Cb: number of insects in non-treated section before treatment Cai: number of insects in non-treated section during observation Tb: number of insects in treated section before treatment Tai: number of insects in treated section during observation

Consider `FC(F)(F)c1ccc2nc(-c3ccncc3)oc2n1` [Active Compound 153, 2-(pyridin-4-yl)-5-(trifluoromethyl)oxazolo[5,4-b]pyridine], for which the pest or weed control at 500 ppm in test [1] is no less than 90%.
In the case of `FC(F)(F)c1ccc2nc(-c3ccncc3Cl)oc2n1` [Active Compound 154, 2-(3-chloropyridin-4-yl)-5-(trifluoromethyl)oxazolo[5,4-b]pyridine], the pest or weed control at 500 ppm in test [1] was no less than 90%.
On to `CCc1ccc2oc(-c3ccncc3)nc2c1` [active compound 3, 5-ethyl-2-(pyridin-4-yl)-benzoxazole], for which the pest or weed control at 500 ppm in test [1] is no less than 90%.
As to `CC(C)c1ccc2oc(-c3ccncc3)nc2c1` [active compound 5, 5-isopropyl-2-(pyridin-4-yl)-benzoxazole], the pest or weed control at 500 ppm in test [1] and in test [2] was no less than 90% in each case.
Regarding `CC(C)(C)c1ccc2oc(-c3ccncc3)nc2c1` [active compound 6, 5-tert-butyl-2-(pyridin-4-yl)-benzoxazole], the pest or weed control at 500 ppm in test [1] and in test [2] was no less than 90% each time.
For the molecule `FC(F)(F)c1ccc2oc(-c3ccncc3I)nc2c1` [active compound 29, 2-(3-iodopyridin-4-yl)-5-(trifluoromethyl)benzoxazole], in test [3], the pest or weed control at 500 ppm is no less than 90%.
With `FC(F)(F)COc1cnccc1-c1nc2cc(C(F)(F)F)ccc2o1` [active compound 39, 2-[3-(2,2,2-trifluoroethyl)oxypyridin-4-yl]-5-(trifluoromethyl)benzoxazole], the pest or weed control at 500 ppm in test [4] was no less than 90%.
Turning to `CCSc1cnccc1-c1nc2cc(C(F)(F)F)ccc2o1` [active compound 41, 2-(3-ethylthiopyridin-4-yl)-5-(trifluoromethyl)benzoxazole], in test [4], the pest or weed control at 500 ppm is no less than 90%.
`Nc1cnccc1-c1nc2cc(C(F)(F)F)ccc2o1` [active compound 52, 2-(3-aminopyridin-4-yl)-5-(trifluoromethyl)benzoxazole]: the pest or weed control at 500 ppm in test [1] was no less than 90%.
Still for that read-out and setting: the result for `FC(F)(F)c1ccc2oc(-c3ccncc3N3CCCC3)nc2c1` [active compound 53, 2-[3-(pyrrolidine-1-yl)pyridin-4-yl]-5-(trifluoromethyl)benzoxazole] reads no less than 90%.
In the case of `FC(F)(F)c1ccc2oc(-c3ccncc3N3CCOCC3)nc2c1` [active compound 55, 2-[3-(morpholin-4-yl)pyridin-4-yl]-5-(trifluoromethyl)benzoxazole], the pest or weed control at 500 ppm in test [3] was no less than 90%.
On the same count and under the same terms, the result for `FC(F)(F)c1ccc2oc(-c3ccncc3-n3ccnc3)nc2c1` [active compound 56, 2-[3-(imidazole-1-yl)pyridin-4-yl]-5-(trifluoromethyl)benzoxazole] reads no less than 90%.
For the molecule `FC(F)(F)c1ccc2oc(-c3ccncc3OCC(F)(F)C(F)(F)F)nc2c1` [active compound 75, 2-[3-(2,2,3,3,3-pentafluoropropoxy)pyridin-4-yl]-5-(trifluoromethyl)benzoxazole], in test [4], the pest or weed control at 500 ppm is no less than 90%.
On to `FC(F)(F)Sc1ccc2oc(-c3ccncc3)nc2c1` [active compound 76, 2-(pyridin-4-yl)-5-(trifluoromethylthio)benzoxazole], for which the pest or weed control at 500 ppm in test [3] is no less than 90%.
In the case of `FC(F)(F)COc1cnccc1-c1nc2cc(C(F)(F)F)c(Cl)cc2o1` [active compound 92, 6-chloro-2-[3-(2,2,2-trifluoroethoxy)pyridin-4-yl]-5-(trifluoromethyl)benzoxazole], the pest or weed control at 500 ppm in test [4] is no less than 90%.
On to `CCc1cnccc1-c1nc2cc(C(F)(F)F)c(Cl)cc2o1` [active compound 93, 6-chloro-2-(3-ethylpyridin-4-yl)-5-(trifluoromethyl)benzoxazole], for which the pest or weed control at 500 ppm in test [4] and in test [3] was no less than 90% in each case.
For the molecule `Fc1cc2oc(-c3ccncc3Cl)nc2cc1C(F)(F)F` [active compound 94], in test [3], the pest or weed control at 500 ppm is no less than 90%.
Turning to `COc1cnccc1-c1nc2cc(C(C)(C)C)ccc2o1` [active compound 100, 5-tert-butyl-2-(3-methoxypyridin-4-yl)benzoxazole], the pest or weed control at 500 ppm in test [4], in test [1] and in test [2] was no less than 90% in each case.
In the case of `CC(C)(C)c1ccc2oc(-c3ccncc3OCC(F)(F)F)nc2c1` [active compound 101, 5-tert-butyl-2-[3-(2,2,2-trifluoroethoxy)pyridin-4-yl]benzoxazole], the pest or weed control at 500 ppm in test [4], in test [1] and in test [2] was no less than 90% in each case.
Take `CC(C)Oc1cnccc1-c1nc2cc(C(C)(C)C)ccc2o1` [active compound 104, 5-tert-butyl-2-(3-isopropoxypyridin-4-yl)benzoxazole]: the pest or weed control at 500 ppm in test [1] and in test [2] was no less than 90% each time.
For `CCc1cnccc1-c1nc2cc(C(C)(C)C)ccc2o1` [active compound 105, 5-tert-butyl-2-(3-ethylpyridin-4-yl)benzoxazole], the pest or weed control at 500 ppm in test [1] and in test [2] was no less than 90% each time.
On to `FC(F)COc1cnccc1-c1nc2cc(C(F)(F)F)ccc2o1` [active compound 110, 2-[3-(2,2-difluoroethoxy)pyridin-4-yl]-5-(trifluoromethyl)benzoxazole], for which the pest or weed control at 500 ppm in test [4], in test [1], in test [2] and in test [3] was no less than 90% in each case.
`CC(Oc1cnccc1-c1nc2cc(C(F)(F)F)ccc2o1)C(F)(F)F` (stereo not shown) [active compound 111, 2-[3-(1-methyl-2,2,2-trifluoroethoxy)pyridin-4-yl]-5-(trifluoromethyl)benzoxazole]: the pest or weed control at 500 ppm in test [4], in test [1] and in test [2] was no less than 90% in each case.
For the molecule `FC(F)(F)c1ccc2oc(-c3ccncc3OC3CCCC3)nc2c1` [active compound 115, 2-(3-cyclopentyloxypyridin-4-yl)-5-(trifluoromethyl)benzoxazole], in test [2], the pest or weed control at 500 ppm was no less than 90%.
On the same count and under the same terms, the result for `CC(C)COc1cnccc1-c1nc2cc(C(F)(F)F)ccc2o1` [active compound 116, 2-(3-isobutoxypyridin-4-yl)-5-(trifluoromethyl)benzoxazole] reads no less than 90%.
`CCC(C)Oc1cnccc1-c1nc2cc(C(F)(F)F)ccc2o1` (stereo not shown) [active compound 119, 2-(3-sec-butoxypyridin-4-yl)-5-(trifluoromethyl)benzoxazole]: in test [3], the pest or weed control at 500 ppm was no less than 90%.
Still for that read-out and setting: the result for `COCCOc1cnccc1-c1nc2cc(C(F)(F)F)ccc2o1` [active compound 120, 2-[3-(2-methoxyethoxy)pyridin-4-yl]-5-(trifluoromethyl)benzoxazole] reads no less than 90%.
On the same count and under the same terms, the result for `FC(F)(F)c1ccc2oc(-c3ccncc3-c3cccnc3)nc2c1` [active compound 128, 4-(5-trifluoromethyl-benzoxazole-2-yl)-[3,3′]bipyridinyl] reads no less than 90%; that for `CN(C)c1cnccc1-c1nc2cc(C(F)(F)F)ccc2o1` [active compound 131, dimethyl-{4-[5-(trifluoromethyl)benzoxazole-2-yl]pyridin-3-yl}amine], no less than 90%.

These data come from patent publication US8445522B2, “Substituted 2-(4-pyridyl)benzoxazoles, and compositions thereof, for use in arthropod pest control” (Sumitomo Chemical Company, Limited, priority 2009, dated 2013).
